Measurements: patent US7323490B2, “Pyrrole compounds and uses thereof” (Ambit Biosciences Corporation, priority 2003, dated 2008)
Where “and” joins values, the source holds several entries; their conditions need not be identical. Equal values may be shown once. Read-outs that look alike come from different tables or passages of the source.

What was measured:
focal cerebral ischemia = conditions: for Infarct Volume: 1 h post, 24 h post MCAo, mean ± SEM; for Infarct Volume / infarct volume compared with controls (significance) / reduction in infarct volume from control: 48 h
Procedure: Control animals were injected with the vehicle for the test compounds. Survival was maintained for 48 hrs. The cortical infarction sizes were used as endpoints for efficacy evaluation.
Animal Preparation and Middle Cerebral Artery Occlusion. Male, adult, Sprague-Dawley rats (Charles River), weighing 300-400 grams, were used for the study. All animals were acclimated at least for five days before entering the study. Animals were housed in a standard animal facility and fed with commercial rodent chow ad libitum. All animals were anesthetized via intramuscular injection (4 mL/kg) of “cocktail” containing ketamine (25 mg/mL), xylazine (1.3 mg/mL) and acepromazine (0.33 mg/mL). Both carotid arteries were separated with great caution to minimize the vagal nerve stimulation. The right proximal MCA trunk was exposed through a subtemporal craniectomy without transecting the facial nerve. […] Immediately following MCA occlusion, both of the common carotid arteries were occluded for 1 hour using surgical aneurysm micro-clips (ROBOZ INC). Animals were put into temperature regulated recovery chamber for 1 hour before the clips were removed from the common carotid arteries. Body temperature was maintained at 37±0.5° C. during the surgery using a heating blanket connected to a temperature controller.
Compound Administration and Storage. In a blinded random investigation, all animals were injected with the compound(s) or vehicle via S.C. as bolus injection at 2 hours pre, 1 hour post and 24 hours post-MCAo.
Infarct Measurement. Forty-eight hours following MCAo, animals were euthanized with inhalation of CO2. Brains were removed and chilled in ice saline for 10 min. The brains were put in a metal rodent brain slicer. Each rat brain was cut coronally into 7 sections, with each section being 2 mm thick. The brain sections were immersed in 2% TTC solution for 30 min at 37° C. The areas of cerebral infarcts were determined on seven slices, using a computer-interfaced imaging system, Image-Pro® Plus, Version 4.4 for Windows (Media Cybernetics, MD). Infarct areas were then summed among slices and multiplied by slice thickness to give the total infarct volume.
Statistics. All data are expressed as mean±SEM. Infarct volume was analyzed using Student t Test. A p value of ≦0.05 was considered a statistically significant difference. All statistical analyses were performed with the software package JMP version 4.0 (SAS Institute Inc., Cary, N.C.).

[1] = system: focal cerebral infarcts (MCAo); test: Body swing test, Tamura MCAo model; format: in vivo, rat; set-up: unit not given here; conditions: AVG
Description: Surgical Preparation. Middle Cerebral Artery Occlusion (MCAo), Tamura Model. Focal cerebral infarcts were made by permanent occlusion of the proximal right middle cerebral artery using a modification of the method of Tamura et al. […] The temporalis muscle was bisected and reflected through an incision made midway between the eye and the eardrum canal. The proximal MCA was exposed through a subtemporal craniectomy without removing the zygomatic arch and without transecting the facial nerve. […] Animals were euthanatized at various time periods after MCA occlusion and the brains are removed for histological analysis. Behavioral Analysis. Two behavioral tests were performed, the limb placing and body swing test. […] Body Swing Test. The animal was held approximately 1 inch from the base of its tail. It was then elevated to an inch above a surface of a table. The animal was held in the vertical axis, defined as no more than 10° to either the left or the right side. A swing was recorded whenever the animal moves its head out of the vertical axis to either side. Before attempting another swing, the animal must return to the vertical position for the next swing to be counted. Thirty total swings were counted. A normal animal typically has an equal number of swings to either side. Following focal stroke, the animal tends to swing to the contralateral side. There is a slow spontaneous recovery of body swing during the first month after stroke. Experimental Groups and Compound Administration. A total of 80 animals underwent MCAo using subcutaneous administration of all test articles, according to the experimental design illustrated in Table 16. […] All animals were treated with the compound(s)/vehicle(s) as a blinded random investigation. The dose and route of administration is given below in Table 16.

[2] = system: focal cerebral infarcts (MCAo); test: Infarct volume measurement (H&E), Tamura MCAo model; format: in vivo, rat; conditions: day 7
Description: Behavioral assessment as well as infarct volume of compound-treated animals in comparison to control (vehicle) volume animals was used for evaluating compound efficacy over a 7 day period.
Surgical Preparation. Middle Cerebral Artery Occlusion (MCAo), Tamura Model. Focal cerebral infarcts were made by permanent occlusion of the proximal right middle cerebral artery using a modification of the method of Tamura et al. Male Sprague-Dawley rats (300-350 g) were anesthetized with 2% isoflourane in 50% Air/50% O2, and maintained with 1-1.5% isoflourane. The temporalis muscle was bisected and reflected through an incision made midway between the eye and the eardrum canal. The proximal MCA was exposed through a subtemporal craniectomy without removing the zygomatic arch and without transecting the facial nerve. […] Body temperature was maintained at 38° C.±1 throughout the entire procedure. Animals were euthanatized at various time periods after MCA occlusion and the brains are removed for histological analysis.
Morphometric Analysis—Brain Perfusion. Seven days after the induction of focal ischemia, rats were deeply anesthetized with a ketamine, and xylazine cocktail. The animals were then perfused transcardially with normal saline (with heparin 2 unit/ml) followed by 4% paraformaldehyde for infarct volume measurement (H&E staining). Brains were removed and stored in 10% formalin to be sectioned and stained with Hematoxylin and Eosin.
Infarct Volume Measurement. Using the Image Pro-Plus imaging system, a total of 7 images per brain of the posterior side of each slice were analyzed through digital analysis. The total direct infarct volume was calculated for the left hemisphere using the equation below. Digitizing and computation was done under blinded conditions.
The total infarct volumes are calculated for each animal and subsequent group means were determined as volume of area (mm^3). To account for tissue shrinkage and possible edema the indirect method of infarct volume was calculated using the formula: Total Contralateral Hemisphere Volume−Total Infarcted Hemisphere Volume (mm^3)
Experimental Groups and Compound Administration. A total of 80 animals underwent MCAo using subcutaneous administration of all test articles, according to the experimental design illustrated in Table 16. […] The time schedules for administration of all treated groups (10 animals/group) was divided as follows:
All animals were treated with the compound(s)/vehicle(s) as a blinded random investigation. The dose and route of administration is given below in Table 16. Forty animals used in the first group of the study (group a.) Cerebral blood flow measurement was performed according to the protocol previously discussed on days 0, 1 and 5 with respect to MCAo.

[3] = administered six hours after MCAo
[4] = administered three hours after MCAo
[5] = administered six hours after MCAo, listed as B
[6] = administered three hours after MCAo, listed as B
[7] = administered six hours after MCAo, listed as A
[8] = administered three hours after MCAo, listed as A
[9] = administered six hours after MCAo, listed as C
[10] = administered three hours after MCAo, listed as C

| Compound | Infarct Volume (focal cerebral ischemia; 1 mg/kg SC at 2 h pre) [mm^3] | infarct volume compared with controls (significance) (focal cerebral ischemia; 1 mg/kg SC) | Body swing test score, D0 [1, 3] | Body swing test score, D1 [1, 3] | Body swing test score, D3 [1, 3] | Body swing test score, D7 [1, 3] | Body swing test score, D0 [1, 4] | Body swing test score, D1 [1, 4] | Body swing test score, D3 [1, 4] | Body swing test score, D7 [1, 4] | Corrected Infarct Volume, Average [2, 3] [mm^3] | Percent Infarct Volume, Average [2, 3] [%] | Corrected Infarct Volume, Average [2, 4] [mm^3] | Percent Infarct Volume, Average [2, 4] [%] | also measured |
| --- | --- | --- | --- | --- | --- | --- | --- | --- | --- | --- | --- | --- | --- | --- | --- |
| CC(C)c1[nH]c(-c2ccc(F)cc2)c(-c2ccccc2)c1C(=O)Nc1ccccc1 [Compound 781430] | 152.83 ± 13.78 | not significantly different from controls | 50 | 19 | 22 | 23 | 50 | 31 | 43 | 44 | 283.4 | 26.92 | 213.77 | 22.29 | Infarct Volume (focal cerebral ischemia; 10 mg/kg SC at 2 h pre, listed as B): 65.99±25.01 mm^3; reduction in infarct volume from control (focal cerebral ischemia; 10 mg/kg SC): 57%; Corrected Infarct Volume, individual animals [2, 5]: 375.7 mm^3 and 204.5 mm^3 and 353.2 mm^3 and 262.2 mm^3 and 196.6 mm^3 and 352.4 mm^3 and 289.9 mm^3 and 195.4 mm^3 and 327.7 mm^3 and 276.5 mm^3; Percent Infarct Volume, individual animals [2, 5]: 31.4% and 21.7% and 26.2% and 33.9% and 15.6% and 29.1% and 28.8% and 25.4% and 35.3% and 21.8%; Corrected Infarct Volume, individual animals [2, 6]: 200.1 mm^3 and 231.7 mm^3 and 217.7 mm^3 and 173 mm^3 and 180.5 mm^3 and 224.1 mm^3 and 208.1 mm^3 and 233.4 mm^3 and 255.3 mm^3; Percent Infarct Volume, individual animals [2, 6]: 19.74% and 21.5679% and 24.3% and 20.62% and 19.71% and 23.99% and 22.56% and 24.24% and 23.9% |
| CC(C)c1c(C(=O)Nc2ccccc2)c(-c2ccccc2)c(-c2ccc(F)cc2)n1CC(O)C(O)C(O)C(O)CO (stereo not drawn) [Compound 782236] |  |  | 50 | 7 | 9 | 23 | 50 | 8 | 27 | 37 | 239.27 | 26.69 | 212.59 | 23.53 | Infarct Volume (focal cerebral ischemia; 1 mg/kg SC at 2 h pre, listed as A): 71.32±36.98 mm^3; reduction in infarct volume from control (focal cerebral ischemia; 1 mg/kg SC): 53%; animals died within the 24-hour period after the second injection (focal cerebral ischemia; 10 mg/kg SC): Three; mortality rate (focal cerebral ischemia; 10 mg/kg SC): 60%; Corrected Infarct Volume, individual animals [2, 7]: 227.2 mm^3 and 166.6 mm^3 and 234.6 mm^3 and 269.8 mm^3 and 249 mm^3 and 215.8 mm^3 and 229 mm^3 and 213.3 mm^3 and 271.4 mm^3 and 316 mm^3; Percent Infarct Volume, individual animals [2, 7]: 25.6% and 31.5% and 24.6% and 28.8% and 28.1% and 28.9% and 24.8% and 23.5% and 25.3% and 25.8%; Corrected Infarct Volume, individual animals [2, 8]: 210.9 mm^3 and 272.5 mm^3 and 275.6 mm^3 and 163.8 mm^3 and 249 mm^3 and 229.2 mm^3 and 127.9 mm^3 and 222.3 mm^3 and 235 mm^3 and 139.8 mm^3; Percent Infarct Volume, individual animals [2, 8]: 25.1% and 29% and 23.7% and 15.8% and 28.1% and 25.9% and 15.9% and 27.5% and 25.4% and 18.9% |
| CC(C)c1c(C(=O)Nc2ccccc2)c(-c2ccccc2)c(-c2ccc(F)cc2)n1CC[C@@H](O)C[C@@H](O)CC(=O)O [atorvastatin, reference compound] | 158.06 ± 32.83 | not significantly different from controls | 50 | 19 | 17 | 19 | 50 | 13 | 28 | 41 | 271.2 | 24.56 | 207.96 | 21 | Infarct Volume (focal cerebral ischemia; 10 mg/kg SC at 2 h pre): 124.71 ± 17.31 mm^3; infarct volume compared with controls (significance) (focal cerebral ischemia; 10 mg/kg SC): not significantly different from controls; Corrected Infarct Volume, individual animals [2, 9]: 138.8 mm^3 and 267.1 mm^3 and 232.3 mm^3 and 333 mm^3 and 214.3 mm^3 and 291.6 mm^3 and 338.3 mm^3 and 354.3 mm^3; Percent Infarct Volume, individual animals [2, 9]: 12.7% and 21.6% and 24.2% and 31% and 25.4% and 29.4% and 25.7% and 26.6%; Corrected Infarct Volume, individual animals [2, 10]: 208 mm^3 and 303.3 mm^3 and 262.3 mm^3 and 184.8 mm^3 and 243.8 mm^3 and 124 mm^3 and 162.8 mm^3 and 164.5 mm^3 and 218.2 mm^3; Percent Infarct Volume, individual animals [2, 10]: 18.35% and 28.2% and 31% and 16.2101% and 25.43% and 12.82% and 17.39% and 16.81% and 22.81% |
